Results as given in ChEMBL document CHEMBL5137114, “Discovery of IHMT-MST1-58 as a Novel, Potent, and Selective MST1 Inhibitor for the Treatment of Type 1/2 Diabetes” (J Med Chem, 2022).
The source made the active and inactive calls. The calls are words filed in the database; no cut-off is given here.

Assays:
[1] = Cmax in Sprague-Dawley rat at 1 mg/kg, iv measured up to 12 hrs by LC-MS/MS analysis; format: ADME, organism-based; parameters: time < 12 hrs, dose 1 mg/kg, route iv; settings: in vivo
[2] = target: T1, Serine/threonine-protein kinase 3 (Homo sapiens, UniProt Q13188); test: Inhibition of recombinant full length N-terminal GST -tagged human MST2 expressed in baculovirus infected Sf9 insect cells using KKSRGDYMTMQIG as substrate incubated for 1 hr in presence of ATP by ADP-Glo luminescent assay
T1 sequence (Q13188 whole entry): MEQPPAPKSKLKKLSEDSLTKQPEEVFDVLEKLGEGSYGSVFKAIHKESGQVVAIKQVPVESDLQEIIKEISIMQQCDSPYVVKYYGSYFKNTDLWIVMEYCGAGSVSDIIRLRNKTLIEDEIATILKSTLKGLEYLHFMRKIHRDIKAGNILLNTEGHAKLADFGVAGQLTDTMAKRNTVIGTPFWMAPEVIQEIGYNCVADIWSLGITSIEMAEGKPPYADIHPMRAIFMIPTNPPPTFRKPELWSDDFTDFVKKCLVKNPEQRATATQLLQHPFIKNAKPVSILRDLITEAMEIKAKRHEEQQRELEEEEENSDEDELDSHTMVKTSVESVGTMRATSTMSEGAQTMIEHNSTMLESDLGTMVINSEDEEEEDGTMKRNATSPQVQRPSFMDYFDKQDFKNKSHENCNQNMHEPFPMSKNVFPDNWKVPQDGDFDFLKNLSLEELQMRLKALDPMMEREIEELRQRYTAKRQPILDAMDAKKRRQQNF

[3] = Cmax in Beagle dog at 1 mg/kg, iv measured up to 12 hrs by LC-MS/MS analysis; format: ADME, organism-based, Canis lupus familiaris; parameters: dose 1 mg/kg, time < 12 hrs, route iv; settings: in vivo
Mus musculus [4] = test: Antidiabetic activity in multi low dose STZ-induced C57BL/6J mouse model of type 1 diabetes assessed as reduction in HbA1c level at 50 mg/kg, po qd administered in presence of metformin (reference value: 7.6 %); format: functional; parameters: scale not given: the % may be the effect or the level left
Mus musculus [5] = test: Antidiabetic activity against high fat diet-STZ-induced C57BL/6J mouse model of type 2 diabetes assessed as improvement in water consumption at 50 mg/kg, po qd administered upto 106 days in presence of metformin; format: functional, organism-based; settings: time <= 106.0 day
Mus musculus [6] = test: Antidiabetic activity in 12 to 14 hrs fasted high fat diet-STZ-induced C57BL/6J mouse model of type 2 diabetes assessed as reduction on blood glucose at 50 mg/kg, po qd pretreated with compound followed by glucose challenge measured upto 180 mins by IPGTT assay; format: functional, organism-based
Mus musculus [7] = test: Antidiabetic activity against 12 hrs fasted high fat diet-STZ-induced C57BL/6J mouse model of type 2 diabetes assessed as decrease in fasting blood glucose level at 50 mg/kg, po qd measured immediately (reference value: 20.3 mmol/L); format: functional
[8] = AUC (0 to t) in mouse plasma at 50 mg/kg, po measured up to 24 hrs by LC-MS/MS analysis; format: ADME, organism-based; parameters: dose 50 mg/kg, time < 24 hrs, route po
[9] = target: T2, Serine/threonine-protein kinase 3 (Homo sapiens) (UniProt Q13188); test: Inhibition of recombinant full length N-terminal GST -tagged human MST2 expressed in baculovirus infected Sf9 insect cells using KKSRGDYMTMQIG as substrate incubated for 1 hr in presence of ATP by ADP-Glo luminescent assay relative to control; settings: concentration not given here
T2 sequence (whole entry): T1 sequence (Q13188 whole entry)

[10] = system: Serine/threonine-protein kinase 4 (Rattus norvegicus); test: Inhibition of TNF-alpha-stimulated MST1 in rat INS1 cells assessed as reduction in MOB1 autophosphorylation incubated for 12 hrs by Western blotting analysis; settings: dose 0.1-10 µM, DDE = dose-dependent effect
Mus musculus [11] = test: Antidiabetic activity in 12 to 14 hrs fasted multi low dose STZ-induced C57BL/6J mouse model of type 1 diabetes assessed as reduction on blood glucose at 50 mg/kg, po qd pretreated with compound followed by glucose challenge and measured upto 180 mins by IPGTT assay; format: functional, organism-based
[12] = Toxicity in high fat diet-STZ-induced C57BL/6J mouse model of type 2 diabetes assessed as effect on pancreas morphology at 250 mg/kg, po qd in presence of metformin by H and E staining based analysis; format: organism-based; settings: in vivo
[13] = Toxicity in multi low dose STZ-induced C57BL/6J mouse model of type 1 diabetes assessed as effect on pancreas morphology at 50 mg/kg, po qd by H and E staining based analysis; format: organism-based; settings: in vivo
[14] = AUC (0 to t) in mouse at 1 mg/kg, iv measured up to 12 hrs by LC-MS/MS analysis; format: ADME, organism-based; parameters: time < 12 hrs, dose 1 mg/kg, route iv; settings: in vivo
[15] = target: T3, Serine/threonine-protein kinase Nek3 (Homo sapiens, UniProt P51956); test: Inhibition of recombinant full length N-terminal GST -tagged human NEK3 expressed in baculovirus expression system using S2 as substrate incubated for 2 hrs by HTRF assay
T3 sequence (P51956 whole entry): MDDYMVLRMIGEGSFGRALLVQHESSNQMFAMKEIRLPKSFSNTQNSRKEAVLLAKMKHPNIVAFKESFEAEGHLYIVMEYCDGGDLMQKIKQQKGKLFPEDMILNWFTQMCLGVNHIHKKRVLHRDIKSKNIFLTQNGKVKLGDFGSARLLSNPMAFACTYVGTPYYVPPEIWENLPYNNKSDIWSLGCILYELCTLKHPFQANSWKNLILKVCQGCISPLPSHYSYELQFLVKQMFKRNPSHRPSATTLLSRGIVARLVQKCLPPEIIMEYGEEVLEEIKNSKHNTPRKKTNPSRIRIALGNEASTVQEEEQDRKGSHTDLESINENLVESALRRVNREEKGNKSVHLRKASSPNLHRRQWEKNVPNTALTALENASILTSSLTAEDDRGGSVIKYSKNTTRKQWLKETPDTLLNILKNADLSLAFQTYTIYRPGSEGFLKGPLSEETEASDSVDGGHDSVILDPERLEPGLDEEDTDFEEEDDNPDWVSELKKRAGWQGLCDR

[16] = Toxicity in high multi low dose STZ-induced C57BL/6J mouse model of Type 1 diabetes assessed as effect on body weight at 50 mg/kg, po qd in presence of metformin; format: organism-based; settings: in vivo
[17] = Toxicity in multi low dose STZ-induced C57BL/6J mouse model of type 1 diabetes assessed as effect on pancreas morphology at 50 mg/kg, po qd in presence of metformin by H and E staining based analysis; format: organism-based; settings: in vivo
[18] = AUC (0 to t) in mouse Pancreas at 50 mg/kg, po measured up to 24 hrs by LC-MS/MS analysis; format: ADME, organism-based; parameters: time < 24 hrs, dose 50 mg/kg, route po
[19] = AUC (0 to t) in Beagle dog at 1 mg/kg, iv measured up to 12 hrs by LC-MS/MS analysis; format: ADME, organism-based, Canis lupus familiaris; parameters: time < 12 hrs, dose 1 mg/kg, route iv; settings: in vivo
[20] = Half life in mouse at 10 mg/kg, po measured up to 24 hrs by LC-MS/MS analysis; format: ADME, organism-based; settings: in vivo
[21] = target: T4, Serine/threonine-protein kinase Nek3 (Homo sapiens) (UniProt P51956); test: Inhibition of recombinant full length N-terminal GST -tagged human NEK3 expressed in baculovirus expression system using S2 as substrate incubated for 2 hrs by HTRF assay relative to control; settings: Sf9, concentration not given here
T4 sequence (whole entry): T3 sequence (P51956 whole entry)

[22] = Toxicity in multi low dose STZ-induced C57BL/6J mouse model of Type 1 diabetes assessed as effect on body weight at 50 mg/kg, po qd; format: organism-based; settings: in vivo

Cc1ccccc1C1C(=O)N(C)c2cnc(Nc3ccc(S(N)(=O)=O)cc3)nc2N1C (configuration not stated)
Cmax [1]: 944 ng/mL | IC50 [2]: 652 nM | Cmax [3]: 467 ng/mL | Activity (Mus musculus [4]): 6.1% | Activity (Mus musculus [5]): Active | Activity (Mus musculus [6]): Active | Activity (Mus musculus [7]): 20.2 mmol/L | AUC(0-t) at 24 h [8]: 13600 ng·h/mL | inhibition [9]: 52% | inhibition [10]: Dde | Activity (Mus musculus [11]): Active | Activity [12]: Non-Toxic | Activity [13]: Non-Toxic | AUC(0-t) at 12 h [14]: 501 ng·h/mL | IC50 [15]: > 10000 nM | Activity [16]: Non-Toxic | Activity [17]: Non-Toxic | AUC(0-t) at 24 h [18]: 51400 ng·h/mL | AUC(0-t) at 12 h [19]: 764 ng·h/mL | half-life [20]: 1.81 h | inhibition [21]: 0.85% | Activity [22]: Non-Toxic
